Test results reported in ChEMBL document CHEMBL5346931, “Design, synthesis, and repurposing of O6-aminoalkyl-sulfuretin analogs towards discovery of potential lead compounds as antileishmanial agents” (Eur J Med Chem, 2023).

Key:
[1] = system: Leishmania donovani; test: Antileishmanial activity against Leishmania donovani promastigotes assessed as parasitic growth inhibition at 50 uM incubated for 3 days by resazurin dye based assay relative to control; assay type: functional; conditions: 72 h, time 3 day
[2] = system: Leishmania donovani; test: Antileishmanial activity against Leishmania donovani promastigotes assessed as parasitic growth inhibition at 25 uM incubated for 3 days by resazurin dye based assay relative to control; assay type: functional; conditions: 72 h, time 3 day
[3] = system: Leishmania donovani; test: Antileishmanial activity against Leishmania donovani promastigotes assessed as parasitic growth inhibition incubated for 3 days by resazurin dye based assay; assay type: functional, organism-based; conditions: 72 h
[4] = system: Leishmania donovani; test: Antileishmanial activity against Leishmania donovani amastigotes infected in human THP-1 cells assessed as inhibition of intracellular parasite number incubated for 72 hrs by DAPI staining based assay; assay type: functional, organism-based; conditions: THP-1, 72 h
[5] = system: Leishmania donovani; test: Antileishmanial activity against Leishmania donovani amastigotes infected in human THP-1 cells assessed as inhibition of parasite infection incubated for 72 hrs by DAPI staining based assay; assay type: functional, organism-based; conditions: THP-1, 72 h
[6] = Cytotoxicity against human THP-1 cells; assay type: toxicity, cell-based

Structure (SMILES)	IC50 [4] [µM]	IC50 [5] [µM]	inhibition at 50 µM [1] [%]	inhibition at 25 µM [2] [%]	IC50 [3] [µM]	CC50 [6] [µM]
COc1ccc2c(c1)O/C(=C\c1ccc(O)c(O)c1)C2=O			108	105	26.4	
COc1ccc(/C=C2\Oc3cc(OCCN4CCCCC4)ccc3C2=O)cc1OC	25.5	29.7	127	122	2.5	27.4
CCCCCCCCCCCCCCCCCCOCC(COP(=O)([O-])OCC[N+](C)(C)C)OC (stereo unspecified) [EDELFOSINE]	2	7.7	108	108	3.9	12.9
COc1cc(/C=C2\Oc3cc(OCCCN4CCCC4)ccc3C2=O)cc(OC)c1	14.3	14	102	104	2.8	15.3
COc1cccc(/C=C2\Oc3cc(OCCN4CCOCC4)ccc3C2=O)c1			105	80	27	
COc1ccc(/C=C2\Oc3cc(OCCCN4CCCC4)ccc3C2=O)cc1OC	16.9	26.2	124	120	3.1	26.9
COc1ccc(/C=C2\Oc3cc(OCCCCCN4CCCCC4)ccc3C2=O)cc1OC	17.1	24.1	124	115	2.9	26.1
COc1ccc(OC)c(/C=C2\Oc3cc(OCCN4CCCC4)ccc3C2=O)c1	4.6	11.1	116	115	4.1	10.5
COc1ccccc1/C=C1\Oc2cc(OCCN3CCCC3)ccc2C1=O			71	69	> 100	
COc1ccc(/C=C2\Oc3cc(OCCN4CCCC4)ccc3C2=O)cc1	15.8	22.6	115	108	4.8	21.5
CCN(CC)CCOc1ccc2c(c1)O/C(=C\c1cccc(OC)c1)C2=O	> 100	27.4	121	115	8.6	39
COc1ccccc1/C=C1\Oc2cc(OCCCN3CCCC3)ccc2C1=O	8.2	21.2	110	107	4.1	14.3

Continued, in another order:

IC50 [4] [µM]	IC50 [5] [µM]	Structure (SMILES)	inhibition at 50 µM [1] [%]	inhibition at 25 µM [2] [%]	IC50 [3] [µM]	CC50 [6] [µM]
14.5	17.1	CCN(CC)CCCOc1ccc2c(c1)O/C(=C\c1cccc(OC)c1)C2=O	118	114	4.6	19.3
22.9	26.7	COc1cccc(/C=C2\Oc3cc(OCCN4CCCC4)ccc3C2=O)c1	117	112	4.8	28.9
22.3	29.5	COc1ccc(/C=C2\Oc3cc(OCCCN4CCCCC4)ccc3C2=O)cc1OC	125	119	2.6	28.4
15.7	27.3	COc1cc(/C=C2\Oc3cc(OCCN4CCCC4)ccc3C2=O)cc(OC)c1OC	133	126	3.1	26.2
> 100	26.4	COc1cccc(/C=C2\Oc3cc(OCCCN4CCCC4)ccc3C2=O)c1OC	116	109	5.4	33.5
9.9	13.3	CCN(CC)CCOc1ccc2c(c1)O/C(=C\c1ccccc1OC)C2=O	115	110	5.3	17.2
31.5	34.8	COc1ccc(/C=C2\Oc3cc(OCCN4CCCCC4)ccc3C2=O)cc1	99	104	4.3	40.7
4.4	6.3	COc1ccc(OC)c(/C=C2\Oc3cc(OCCCN4CCCC4)ccc3C2=O)c1	103	103	3.7	6.6
